The source of these data is publication PMC9394284, “Discovery of Novel Dual Adenosine A2A and A1 Receptor Antagonists with 1H-Pyrazolo[3,4-d]pyrimidin-6-amine Core Scaffold as Anti-Parkinson’s Disease Agents” (Pharmaceuticals, 2022).

The target in this assay is T1, hA2A receptors (Homo sapiens, UniProt P29274).
T1 construct: purchased PerkinElmer RBHA2AM
Nature of the assay: radioligand binding to human A2A receptors, HEK-293 membranes. The method, then: The binding affinities of synthesized compounds to human A2A receptors (hA2AR) were measured by assessing competitive binding of ligands to radioligand […] using membrane preparations of human recombinant HEK-293 cells expressing human A2A receptors.
The radioligand-binding assays for adenosine receptors were performed at Eurofins Discovery Services (Panlabs, Taiwan). Briefly, stock solutions of the compounds were prepared in DMSO and further diluted with the incubation buffer to the desired concentration. Final DMSO concentrations in the assay were 1.0%. […] Nonspecific binding was estimated in the presence of 100 μM R(-)-PIA. Membranes were filtered and washed 3 times and the filters were counted to determine specifically bound [^3H]DPCPX. Chemical compounds were screened at 10 μM. […] Nonspecific binding was estimated in the presence of 50.0 μM NECA. […] Nonspecific binding was estimated in the presence of 100 μM NECA. Membranes were filtered and washed 3 times and the filters were counted to determine [^3H]MRS1754 specifically bound. […] Nonspecific binding was estimated in the presence of 1.0 μM IB-MECA.
IC50 values were determined by a nonlinear, least-squares regression analysis using MathIQ^TM (ID Business Solutions Ltd., Guildford, UK). […] The Hill coefficient (nH), which defines the slope of the competitive binding curve, was calculated using MathIQ^TM.

Setting [1] is: average of duplicate experiments.

T1 sequence (P29274 whole entry): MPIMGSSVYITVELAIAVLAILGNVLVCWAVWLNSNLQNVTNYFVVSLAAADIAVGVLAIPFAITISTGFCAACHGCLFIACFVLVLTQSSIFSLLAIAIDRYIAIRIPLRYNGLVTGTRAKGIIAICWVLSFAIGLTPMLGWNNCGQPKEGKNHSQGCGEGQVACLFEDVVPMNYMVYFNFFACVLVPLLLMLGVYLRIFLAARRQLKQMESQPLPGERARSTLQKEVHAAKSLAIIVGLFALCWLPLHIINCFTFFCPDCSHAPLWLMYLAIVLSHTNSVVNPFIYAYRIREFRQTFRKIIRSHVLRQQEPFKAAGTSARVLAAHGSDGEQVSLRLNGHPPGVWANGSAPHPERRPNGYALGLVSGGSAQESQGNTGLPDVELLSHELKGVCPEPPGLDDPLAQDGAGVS

Turning to `Cc1cc(Cn2ncc3c(-c4cccc(C#N)c4F)nc(N)nc32)ccc1N` [11o, 3-(6-Amino-1-(4-amino-3-methylbenzyl)-1H-pyrazolo[3,4-d]pyrimidin-4-yl)-2-fluorobenzonitrile], the “nH (Hill coefficient), A2A” value stood at 0.79. For the same molecule, under setting [1], the IC50 stood at 24 nM and the affinity, expressed as Ki, was 13.3 nM.

In general, IC50 refers to the midpoint of a concentration-inhibition curve. High values mean weaker potency, low ones greater potency. The Ki is the dissociation constant of the complex between target and ligand, obtained from inhibition or displacement. Lower therefore signals tighter binding.
